Laboratory results taken from PMC7051184, “C9orf72 arginine-rich dipeptide repeat proteins disrupt karyopherin-mediated nuclear import” (eLife, 2020).

Target: importin β-mediated nuclear import of Rango (Homo sapiens, UniProt Q14974)
Assay: Permeabilized cell nuclear import assay, Rango, mouse primary cortical neurons
Assay type: cell-based
Settings: for Effect on Rango import at steady state: 100 µM, fixed at 2 hr; for Effect on Rango import, time-lapse imaging: 30 min, up to 100 µM
From the text: All animal procedures were approved by the Johns Hopkins Animal Care and Use Committee. Timed pregnant C57BL/6J females (Jackson Laboratory, Bar Harbor, ME) were sacrificed by cervical dislocation at E16, cortex dissociated, and cells plated at 50,000/well on poly-D-lysine/laminin-coated, optical glass-bottom 96-well plates. Growth medium consisted of Neurobasal supplemented with B27, Glutamax, and penicillin/streptomycin (Gibco/ThermoFisher). At 5–7 days in vitro, neurons were rinsed in prewarmed PBS and permeabilized for 4 min. at 37° in a hypotonic solution containing […] Tris-HCl pH 7.5 (to cause osmotic swelling) and 50–150 mg/ml BSA (for molecular crowding/mechanical support). Following permeabilization, cells were placed on ice and rinsed 2 × 5 min in transport buffer (TRB, 20 mM HEPES, 110 mM KOAc, 2 mM Mg(OAc)2, 5 mM NaOAc, 0.5 mM EGTA, 250 mM sucrose, pH 7.3, with protease inhibitor cocktail). All rinse and assay buffers were supplemented with 50 mg/mL BSA. The optimal hypotonic buffer and BSA concentration varied by batch, and was optimized prior to each set of assays for ability to permeabilize the majority of plasma membranes while maintaining nuclear exclusion of a 70 kD fluorescent dextran (ThermoFisher).
Concentrated whole cell lysates were prepared from HEK293T cells (ATCC, mycoplasma negative and validated by STR profiling), grown in 150 mm dishes and sonicated on ice in 1X TRB in the presence of protease inhibitor cocktail (Roche). The lysates were clarified (15 min, 14000 g, 4C), snap frozen in liquid nitrogen, and stored in single use aliquots at −80C. Total HEK cell RNA was extracted using miRNEasy kits according to the manufacturers’ protocol, with DNase digestion (Qiagen). RNA concentration was measured by Nanodrop (ThermoFisher), and all 260/280 ratios were verified to be > 2.0. Energy regeneration (ER) mix consisted of 100 µM ATP, 100 µM GTP, 4 mM creatine phosphate, and 20 U/mL creatine kinase (Roche).
Reaction mixes consisting of 2.5 mg/ml lysate, ER, fluorescent cargo (200 nM Rango and YFP-M9-CFP, 500 nM GST-GFP-NLS), Hoechst, DPRs, RNA, or inhibitors (100 µM importazole (IPZ, Millipore Sigma); 0.8 mg/mL wheat germ agglutinin (WGA, Millipore Sigma) were assembled on ice during cell permeabilization. DPRs or inhibitors were allowed to equilibrate in cell lysate for at least 30 min prior to initiation of transport. Every plate included: (1) Cargo alone: fluorescent cargo, but no ER or lysate, (2) Untreated controls: fluorescent cargo, ER, and lysate, and (3) Inhibitor: fluorescent cargo, ER, lysate, and IPZ (Rango and GST-GFP-NLS reactions) or WGA (YFP-M9-CFP). Preassembled transport reactions were then transferred onto permeabilized cells via multichannel pipette, and allowed to proceed at room temperature for 2 hr (Rango, YFP-M9-CFP) or 4 hr (GST-GFP-NLS). Cells were fixed in 4% paraformaldehyde/PBS, rinsed 2x with PBS, and transferred to 50% glycerol/PBS for immediate imaging.
For a subset of neuron transport assays, transport was monitored live via time lapse imaging every 5 min for 30 min. In a subset of HeLa assays, transport reactions were centrifuged before use at 14,000g × 15 min to separate soluble and insoluble fractions. In another variation, the transport lysate + DPR and ER mix was allowed to preincubate on the permeabilized HeLa cells for 1 hour prior to initiation of transport, rinsed 1x with TRB, and transport initiated with fresh lysate, cargo, and ER.
Multiple non-overlapping fields per well (4 for time-lapse imaging, 9-16 for fixed imaging), were captured at 40x on an ImageXpress Micro XLS high-content microscope (Molecular Devices, San Jose, CA), and the ratio of nuclear to cytoplasmic fluorescence intensity was calculated using the MetaXpress automated translocation-enhanced module. Raw data were filtered to exclude autofluorescence and the mean N/C ratio from wells without ER or cell lysate was subtracted from all values.

Sequence of importin β-mediated nuclear import of Rango (Q14974 whole entry): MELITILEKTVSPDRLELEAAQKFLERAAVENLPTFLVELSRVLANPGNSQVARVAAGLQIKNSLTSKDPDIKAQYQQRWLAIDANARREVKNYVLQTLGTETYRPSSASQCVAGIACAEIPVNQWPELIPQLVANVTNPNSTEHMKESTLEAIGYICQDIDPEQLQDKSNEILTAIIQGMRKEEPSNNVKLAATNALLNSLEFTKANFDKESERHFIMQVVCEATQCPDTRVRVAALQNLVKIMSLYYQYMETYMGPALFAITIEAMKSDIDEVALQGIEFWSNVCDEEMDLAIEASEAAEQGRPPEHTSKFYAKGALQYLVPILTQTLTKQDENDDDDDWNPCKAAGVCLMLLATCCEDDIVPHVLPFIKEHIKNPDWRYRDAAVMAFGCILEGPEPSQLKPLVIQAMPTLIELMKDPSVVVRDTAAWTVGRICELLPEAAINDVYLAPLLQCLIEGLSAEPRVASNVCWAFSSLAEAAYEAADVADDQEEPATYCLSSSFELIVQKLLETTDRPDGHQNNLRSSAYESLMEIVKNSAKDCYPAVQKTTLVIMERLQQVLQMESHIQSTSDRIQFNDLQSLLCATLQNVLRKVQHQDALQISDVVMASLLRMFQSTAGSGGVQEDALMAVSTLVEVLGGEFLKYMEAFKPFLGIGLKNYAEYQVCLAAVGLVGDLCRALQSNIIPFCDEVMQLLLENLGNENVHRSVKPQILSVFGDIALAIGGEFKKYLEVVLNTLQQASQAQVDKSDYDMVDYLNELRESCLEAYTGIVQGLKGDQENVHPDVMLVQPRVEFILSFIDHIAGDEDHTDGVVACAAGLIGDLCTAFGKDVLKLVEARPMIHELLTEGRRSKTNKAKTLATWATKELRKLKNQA

Effect on Rango import at steady state | Effect on Rango import, time-lapse imaging | Substance
no effect | no effect | GPGPGPGPGPGPGPGPGPGPKC [GP10, Synthetic 10-mer GP dipeptide repeat with C-terminal lysine and cysteine]
only trace inhibition | no effect | PA10: Synthetic 10-mer PA dipeptide repeat with C-terminal lysine and cysteine (PAPAPAPAPAPAPAPAPAPAKC)
